According to patent publication US20120022033A1, “Methods for decreasing cardiovascular risk in postmenopausal women” (BIOSANTE PHARMACEUTICALS, INC., priority 2010, published 2012):

Tested on: postmenopausal women at high risk for cardiovascular events
Experiment: Randomized, double-blind, placebo-controlled, multi-center Phase 3 study; observed vs expected cardiovascular events
Assay type: in vivo
Conditions: postmenopausal women at high risk for cardiovascular disease, compared with untreated group
Excerpt: The following example calculates the expected number of cardiovascular events in a population of postmenopausal women derived from historical data. The estimate of the expected rate of cardiovascular events has been determined from the event rates noted in the Women's Health Initiative (WHI), a Department of Health and Human Services National Institute of Health-sponsored study of women between 50 and 79 years of age, a similar set of women between that age were enrolled for determining the actual number of cardiovascular events as described in Example 2.
Overall, the cardiovascular event rate in women in the WHI study who had at least one cardiovascular risk factor was approximately 2-fold greater than in women without any cardiovascular risk factors. […]
The study consisted of a screening period of up to 8 weeks and a 60-month treatment period. […] Adverse cardiovascular and breast cancer events (ABC events) were assessed at each subject contact in addition to the usual assessments of safety and concomitant medications. […]
There were eight adjudicated cardiovascular events determined from this Phase 3 clinical trial after greater than 4,000 woman-years of therapy.

Structure (SMILES): C[C@]12CC[C@H]3[C@@H](CCC4=CC(=O)CC[C@@]43C)[C@@H]1CC[C@@H]2O [testosterone, testosterone (17-β-hydroxyandrostenone)]
- risk of having a cardiovascular event (result in words): decreases in the risk of having a cardiovascular event
